{"source": "PubChem BioAssay (NCI)", "test_in_all_cases": "DTP human tumour cell line panel, 48 h", "key": {"HS 578T breast": {"test_system": "HS 578T breast"}, "MALME-3M melanoma": {"test_system": "MALME-3M melanoma"}, "SW-620 colon": {"test_system": "SW-620 colon"}, "HT29 colon": {"test_system": "HT29 colon"}, "A549 NSCLC": {"test_system": "A549 NSCLC"}, "UACC-62 melanoma": {"test_system": "UACC-62 melanoma"}, "RXF 393 renal": {"test_system": "RXF 393 renal"}, "NCI/ADR-RES ovarian": {"test_system": "NCI/ADR-RES ovarian"}, "NCI-H522 lung": {"test_system": "NCI-H522 lung"}, "SK-OV-3 ovarian": {"test_system": "SK-OV-3 ovarian"}, "NCI-H460 lung": {"test_system": "NCI-H460 lung"}, "SNB-19 CNS": {"test_system": "SNB-19 CNS"}, "TK-10 renal": {"test_system": "TK-10 renal"}, "U251 CNS": {"test_system": "U251 CNS"}, "T-47D breast": {"test_system": "T-47D breast"}, "IGROV1 ovarian": {"test_system": "IGROV1 ovarian"}, "SN12C renal": {"test_system": "SN12C renal"}, "OVCAR-8 ovarian": {"test_system": "OVCAR-8 ovarian"}, "OVCAR-5 ovarian": {"test_system": "OVCAR-5 ovarian"}, "SNB-75 CNS": {"test_system": "SNB-75 CNS"}, "COLO 205 colon": {"test_system": "COLO 205 colon"}, "HOP-92 NSCLC": {"test_system": "HOP-92 NSCLC"}, "KM12 colon": {"test_system": "KM12 colon"}, "SF-295 CNS": {"test_system": "SF-295 CNS"}, "786-0 renal": {"test_system": "786-0 renal"}, "A498 renal": {"test_system": "A498 renal"}, "UO-31 renal": {"test_system": "UO-31 renal"}, "CAKI-1 renal": {"test_system": "CAKI-1 renal"}, "OVCAR-4 ovarian": {"test_system": "OVCAR-4 ovarian"}, "NCI-H226 lung": {"test_system": "NCI-H226 lung"}, "HL-60(TB) leukemia": {"test_system": "HL-60(TB) leukemia"}, "HCT-15 colon": {"test_system": "HCT-15 colon"}, "HCC-2998 colon": {"test_system": "HCC-2998 colon"}, "MCF7 breast": {"test_system": "MCF7 breast"}, "M14 melanoma": {"test_system": "M14 melanoma"}, "BT-549 breast": {"test_system": "BT-549 breast"}, "MDA-N": {"test_system": "MDA-N"}, "SF-268 CNS": {"test_system": "SF-268 CNS"}, "OVCAR-3 ovarian": {"test_system": "OVCAR-3 ovarian"}, "SK-MEL-2 melanoma": {"test_system": "SK-MEL-2 melanoma"}, "DU-145 prostate": {"test_system": "DU-145 prostate"}, "CCRF-CEM leukemia": {"test_system": "CCRF-CEM leukemia"}, "PC-3 prostate": {"test_system": "PC-3 prostate"}, "MDA-MB-435": {"test_system": "MDA-MB-435"}, "ACHN renal": {"test_system": "ACHN renal"}, "MDA-MB-231 breast": {"test_system": "MDA-MB-231 breast"}, "HOP-62 NSCLC": {"test_system": "HOP-62 NSCLC"}, "SK-MEL-5 melanoma": {"test_system": "SK-MEL-5 melanoma"}, "UACC-257 melanoma": {"test_system": "UACC-257 melanoma"}, "MOLT-4 leukemia": {"test_system": "MOLT-4 leukemia"}, "NCI-H23 lung": {"test_system": "NCI-H23 lung"}, "SR leukemia": {"test_system": "SR leukemia"}, "EKVX NSCLC": {"test_system": "EKVX NSCLC"}, "HCT-116 colon": {"test_system": "HCT-116 colon"}, "SK-MEL-28 melanoma": {"test_system": "SK-MEL-28 melanoma"}, "RPMI-8226 leukemia": {"test_system": "RPMI-8226 leukemia"}, "K-562 leukemia": {"test_system": "K-562 leukemia"}, "SF-539 CNS": {"test_system": "SF-539 CNS"}}, "note": "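Step 1: Grow cells in 96-well plates. Step 2: Expose to compound for 48 hours at 5 concentrations. Step 3: Interpolate endpoints linearly; if unreached, use highest concentration. The concentration for full growth arrest is given as TGI.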", "data": [{"smiles": "Cc1ccc(/C=N/n2c(-c3ccc(C)cc3)n[nH]c2=O)cc1", "values": [{"measurement": "TGI", "setting": "HS 578T breast", "result": "> 100", "unit": "µM"}, {"measurement": "TGI", "setting": "MALME-3M melanoma", "result": "> 100", "unit": "µM"}, {"measurement": "TGI", "setting": "SW-620 colon", "result": "> 100", "unit": "µM"}, {"measurement": "TGI", "setting": "HT29 colon", "result": "> 100", "unit": "µM"}, {"measurement": "TGI", "setting": "A549 NSCLC", "result": "> 100", "unit": "µM"}, {"measurement": "TGI", "setting": "UACC-62 melanoma", "result": "> 100", "unit": "µM"}, {"measurement": "TGI", "setting": "RXF 393 renal", "result": 72.9, "unit": "µM"}, {"measurement": "TGI", "setting": "NCI/ADR-RES ovarian", "result": "> 100", "unit": "µM"}, {"measurement": "TGI", "setting": "NCI-H522 lung", "result": "> 100", "unit": "µM"}, {"measurement": "TGI", "setting": "SK-OV-3 ovarian", "result": 66.9, "unit": "µM"}, {"measurement": "TGI", "setting": "NCI-H460 lung", "result": "> 100", "unit": "µM"}, {"measurement": "TGI", "setting": "SNB-19 CNS", "result": "> 100", "unit": "µM"}, {"measurement": "TGI", "setting": "TK-10 renal", "result": "> 100", "unit": "µM"}, {"measurement": "TGI", "setting": "U251 CNS", "result": "> 100", "unit": "µM"}, {"measurement": "TGI", "setting": "T-47D breast", "result": "> 100", "unit": "µM"}, {"measurement": "TGI", "setting": "IGROV1 ovarian", "result": "> 100", "unit": "µM"}, {"measurement": "TGI", "setting": "SN12C renal", "result": "> 100", "unit": "µM"}, {"measurement": "TGI", "setting": "OVCAR-8 ovarian", "result": "> 100", "unit": "µM"}, {"measurement": "TGI", "setting": "OVCAR-5 ovarian", "result": "> 100", "unit": "µM"}, {"measurement": "TGI", "setting": "SNB-75 CNS", "result": "> 100", "unit": "µM"}, {"measurement": "TGI", "setting": "COLO 205 colon", "result": "> 100", "unit": "µM"}, {"measurement": "TGI", "setting": "HOP-92 NSCLC", "result": "> 100", "unit": "µM"}, {"measurement": "TGI", "setting": "KM12 colon", "result": "> 100", "unit": "µM"}, {"measurement": "TGI", "setting": "SF-295 CNS", "result": "> 100", "unit": "µM"}, {"measurement": "TGI", "setting": "786-0 renal", "result": "> 100", "unit": "µM"}, {"measurement": "TGI", "setting": "A498 renal", "result": 95.1, "unit": "µM"}, {"measurement": "TGI", "setting": "UO-31 renal", "result": "> 100", "unit": "µM"}, {"measurement": "TGI", "setting": "CAKI-1 renal", "result": "> 100", "unit": "µM"}, {"measurement": "TGI", "setting": "OVCAR-4 ovarian", "result": "> 100", "unit": "µM"}, {"measurement": "TGI", "setting": "NCI-H226 lung", "result": "> 100", "unit": "µM"}, {"measurement": "TGI", "setting": "HL-60(TB) leukemia", "result": "> 100", "unit": "µM"}, {"measurement": "TGI", "setting": "HCT-15 colon", "result": "> 100", "unit": "µM"}, {"measurement": "TGI", "setting": "HCC-2998 colon", "result": "> 100", "unit": "µM"}, {"measurement": "TGI", "setting": "MCF7 breast", "result": "> 100", "unit": "µM"}, {"measurement": "TGI", "setting": "M14 melanoma", "result": "> 100", "unit": "µM"}, {"measurement": "TGI", "setting": "BT-549 breast", "result": "> 100", "unit": "µM"}, {"measurement": "TGI", "setting": "MDA-N", "result": "> 100", "unit": "µM"}, {"measurement": "TGI", "setting": "SF-268 CNS", "result": "> 100", "unit": "µM"}, {"measurement": "TGI", "setting": "OVCAR-3 ovarian", "result": "> 100", "unit": "µM"}, {"measurement": "TGI", "setting": "SK-MEL-2 melanoma", "result": "> 100", "unit": "µM"}, {"measurement": "TGI", "setting": "DU-145 prostate", "result": "> 100", "unit": "µM"}, {"measurement": "TGI", "setting": "CCRF-CEM leukemia", "result": "> 100", "unit": "µM"}, {"measurement": "TGI", "setting": "PC-3 prostate", "result": "> 100", "unit": "µM"}, {"measurement": "TGI", "setting": "MDA-MB-435", "result": "> 100", "unit": "µM"}, {"measurement": "TGI", "setting": "ACHN renal", "result": "> 100", "unit": "µM"}, {"measurement": "TGI", "setting": "MDA-MB-231 breast", "result": "> 100", "unit": "µM"}, {"measurement": "TGI", "setting": "HOP-62 NSCLC", "result": "> 100", "unit": "µM"}, {"measurement": "TGI", "setting": "SK-MEL-5 melanoma", "result": "> 100", "unit": "µM"}, {"measurement": "TGI", "setting": "UACC-257 melanoma", "result": "> 100", "unit": "µM"}, {"measurement": "TGI", "setting": "MOLT-4 leukemia", "result": "> 100", "unit": "µM"}, {"measurement": "TGI", "setting": "NCI-H23 lung", "result": "> 100", "unit": "µM"}, {"measurement": "TGI", "setting": "SR leukemia", "result": 61.3, "unit": "µM"}, {"measurement": "TGI", "setting": "EKVX NSCLC", "result": "> 100", "unit": "µM"}, {"measurement": "TGI", "setting": "HCT-116 colon", "result": "> 100", "unit": "µM"}, {"measurement": "TGI", "setting": "SK-MEL-28 melanoma", "result": "> 100", "unit": "µM"}, {"measurement": "TGI", "setting": "RPMI-8226 leukemia", "result": "> 100", "unit": "µM"}, {"measurement": "TGI", "setting": "K-562 leukemia", "result": "> 100", "unit": "µM"}, {"measurement": "TGI", "setting": "SF-539 CNS", "result": "> 100", "unit": "µM"}]}]}
